For one assay, the system named is CD8+ T-cells. Description: In vitro T-cell priming assay with aAPCs loaded with peptide/MHC and anti-CD28, pMHC multimer readout. The format is cell-based, human. Particulars: for Wells positive [%]: HLA-A*02 restricted peptides, positive wells among evaluable; for donors (in vitro immunogenicity, positive donors) / wells (in vitro immunogenicity, positive wells): HLA class I peptides, healthy donor CD8+ T-cells, multimer staining. From the text: In order to obtain information regarding the immunogenicity of the TUMAPs of the present invention, the inventors performed investigations using an in vitro T-cell priming assay based on repeated stimulations of CD8+ T-cells with artificial antigen presenting cells (aAPCs) loaded with peptide/MHC complexes and anti-CD28 antibody.
In order to perform in vitro stimulations by artificial antigen presenting cells loaded with peptide-MHC complex (pMHC) and anti-CD28 antibody, the inventors first isolated CD8+ T-cells from fresh HLA-A*02 leukapheresis products via positive selection using CD8 microbeads (Miltenyi Biotec, Bergisch-Gladbach, Germany) of healthy donors obtained from the University clinics Mannheim, Germany, after informed consent.
PBMCs and isolated CD8+ lymphocytes were incubated in T-cell medium (TCM) until use consisting of RPMI-Glutamax (Invitrogen, Karlsruhe, Germany) supplemented with 10% heat inactivated human AB serum (PAN-Biotech, Aidenbach, Germany), 100 U/ml Penicillin/100 μg/ml Streptomycin (Cambrex, Cologne, Germany), 1 mM sodium pyruvate (CC Pro, Oberdorla, Germany), 20 μg/ml Gentamycin (Cambrex). 2.5 ng/ml IL-7 (PromoCell, Heidelberg, Germany) and 10 U/ml IL-2 (Novartis Pharma, Nürnberg, Germany) were also added to the TCM at this step.
Generation of pMHC/anti-CD28 coated beads, T-cell stimulations and readout was performed in a highly defined in vitro system using four different pMHC molecules per stimulation condition and 8 different pMHC molecules per readout condition.
The purified co-stimulatory mouse IgG2a anti human CD28 Ab 9.3 (Jung et al., 1987) was chemically biotinylated using Sulfo-N-hydroxysuccinimidobiotin as recommended by the manufacturer (Perbio, Bonn, Germany). Beads used were 5.6 μm diameter streptavidin coated polystyrene particles (Bangs Laboratories, Illinois, USA).
800.000 beads/200 μl were coated in 96-well plates in the presence of 4×12.5 ng different biotin-pMHC, washed and 600 ng biotin anti-CD28 were added subsequently in a volume of 200 μl. Stimulations were initiated in 96-well plates by co-incubating 1×10^6 CD8+ T-cells with 2×10^5 washed coated beads in 200 μl TCM supplemented with 5 ng/ml IL-12 (PromoCell) for 3 days at 37° C. Half of the medium was then exchanged by fresh TCM supplemented with 80 U/ml IL-2 and incubating was continued for 4 days at 37° C. This stimulation cycle was performed for a total of three times. For the pMHC multimer readout using 8 different pMHC molecules per condition, a two-dimensional combinatorial coding approach was used as previously described (Andersen et al., 2012) with minor modifications encompassing coupling to 5 different fluorochromes. Finally, multimeric analyses were performed by staining the cells with Live/dead near IR dye (Invitrogen, Karlsruhe, Germany), CD8-FITC antibody clone SK1 (BD, Heidelberg, Germany) and fluorescent pMHC multimers. For analysis, a BD LSRII SORP cytometer equipped with appropriate lasers and filters was used. Peptide specific cells were calculated as percentage of total CD8+ cells. Evaluation of multimeric analysis was done using the FlowJo software (Tree Star, Oreg., USA). In vitro priming of specific multimer+ CD8+ lymphocytes was detected by comparing to negative control stimulations.

The target in the next assay is HLA-A*02:01 (Homo sapiens, UniProt P04439, D140Y/D185E/D98H/E176V/E277Q/G131W/G231S/I119V/I121R/I166T/I218V/L300P/L318F/N151K/N90K/P208A/P217A/Q86G/Q94H/R138H/R169H/T345S). The assay can be described thus: MHC binding assay (UV-ligand exchange, beta2m ELISA, peptide exchange yield). Particulars: binding to HLA-A*02:01. The essentials: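 Peptide–HLA-A*02:01 complexes formed by UV-ligand exchange, in which a UV-cleavable peptide is replaced by the test peptide. Exchange products, diluted 100-fold, were captured on streptavidin plates and detected with HRP anti-β2m ELISA at 450 nm. Yield was quantified against refolded monomer standards at 15-500 ng/ml.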
In general terms: In an ELISA, binding on a coated surface is turned into a signal by an enzyme label.

Results on 34 substances are retold here after patent US10513547B2, “Peptides and combination of peptides and scaffolds thereof for use in immunotherapy against colorectal carcinoma (CRC) and other cancers” (Immatics Biotechnologies GmbH, priority 2015, dated 2019).

Regarding “127 (RLAELTVDEFLA; listed as Homo sapiens) [compound 127]”, the “Wells positive [%]” value with CD8+ T-cells is given as ““+” (<20% = +)”. Further, in the assay with HLA-A*02:01, the “Peptide exchange (MHC class I binding score, peptide exchange yield)” value (from here on “Peptide exchange”) was ““+++” (≥50 = +++)”. Turning to “142 (SLVQRVETI; listed as Homo sapiens) [compound 142]”, the “Wells positive [%]” value with CD8+ T-cells is listed as ““+” (<20% = +)”. For the same substance, the “Peptide exchange” value in the assay with HLA-A*02:01 is listed as ““+++” (≥50 = +++)”. As to “11 (YLFEKTFNM; listed as Homo sapiens) [compound 11]”, the “Wells positive [%]” value in the assay with CD8+ T-cells is on record as ““+” (<20% = +)”. The “Peptide exchange” value with HLA-A*02:01 is reported as ““+++” (≥50 = +++)”.

As to “3 (RLIPDTLYSV; listed as Homo sapiens) [compound 3]”, in the assay on CD8+ T-cells, the “Wells positive [%]” value is ““+++” (50%-69% = +++)”. In the case of “47 (KLYERCEVV; listed as Homo sapiens) [compound 47]”, the “Wells positive [%]” value with CD8+ T-cells is ““+” (<20% = +)”. The “Peptide exchange” value in the assay with HLA-A*02:01 is ““++” (≥20% = ++)”. For “141 (AVIEHLERL; listed as Homo sapiens) [compound 141]” the same measures were ““+” (<20% = +)” and ““++++” (≥75% = ++++)”. As to “220 (KMDPVAYRV; listed as Homo sapiens) [compound 220]”, in the assay with CD8+ T-cells, the “donors (in vitro immunogenicity, positive donors)” value is given as “++++ (>=70% = ++++)” and the “wells (in vitro immunogenicity, positive wells)” value is reported as “+++ (50% − 69% = +++)”. “37 (GLFAGLGGAGA; listed as Homo sapiens) [compound 37]”: the “Wells positive [%]” value in the assay on CD8+ T-cells was ““+” (<20% = +)”. The “Peptide exchange” value with HLA-A*02:01 is given as ““+++” (≥50 = +++)”. For “21 (VLIDHRWVL; listed as Homo sapiens) [compound 21]” the same measures were ““+” (<20% = +)” and ““+++” (≥50 = +++)”.

For the substance “123 (KTLERSYLL; listed as Homo sapiens) [compound 123]”, the “Wells positive [%]” value in the assay with CD8+ T-cells was ““+” (<20% = +)”. For the same substance, the “Peptide exchange” value with HLA-A*02:01 is ““++” (≥20% = ++)”.

On to “42 (SILDDSFKL; listed as Homo sapiens) [compound 42]”, for which the “Wells positive [%]” value in the assay with CD8+ T-cells is reported as ““+” (<20% = +)”. Also, the “Peptide exchange” value with HLA-A*02:01 is ““++++” (≥75% = ++++)”. As for “136 (KLFDIFSQQV; listed as Homo sapiens) [compound 136]”, the “Wells positive [%]” value in the assay on CD8+ T-cells is given as ““++” (20%-49% = ++)”. In addition, in the assay with HLA-A*02:01, the “Peptide exchange” value is recorded as ““+++” (≥50 = +++)”. For “13 (FLLAEDTKV; listed as Homo sapiens) [compound 13]” the same measures were ““++” (20%-49% = ++)” and ““+++” (≥50 = +++)”. “219 (FLDEKGRCV; listed as Homo sapiens) [compound 219]”: in the assay on CD8+ T-cells, the “donors (in vitro immunogenicity, positive donors)” value is “+++ (50% − 69% = +++)” and the “wells (in vitro immunogenicity, positive wells)” value is “++ (20% − 49% = ++)”. In the case of “32 (KLNTETFGV; listed as Homo sapiens) [compound 32]”, the “Wells positive [%]” value with CD8+ T-cells was ““++” (20%-49% = ++)”. Also, in the assay with HLA-A*02:01, the “Peptide exchange” value was ““++” (≥20% = ++)”. For “1 (ALIKQLFEA; listed as Homo sapiens) [compound 1]” the same measures were “″+” (<20% = +)” and “″+++” (≥50 = +++)”. For “12 (ALVQGILERV; listed as Homo sapiens) [compound 12]” the same measures were ““++++” (> = 70% = ++++)” and ““+++” (≥50 = +++)”. “124 (RVLPPSALQSV; listed as Homo sapiens) [compound 124]”: the “Wells positive [%]” value with CD8+ T-cells is given as ““+” (<20% = +)”. For the same substance, the “Peptide exchange” value with HLA-A*02:01 is recorded as ““+++” (≥50 = +++)”.

For the substance “133 (RTFEKIEEV; listed as Homo sapiens) [compound 133]”, the “Wells positive [%]” value in the assay with CD8+ T-cells was ““+” (<20% = +)”. In the assay with HLA-A*02:01, the “Peptide exchange” value is ““++” (≥20% = ++)”. For “64 (KTLGKLWRL; listed as Homo sapiens) [compound 64]” the same measures were ““++++” (> = 70% = ++++)” and ““++” (≥20% = ++)”. Take “18 (FLSSLKGGLL; listed as Homo sapiens) [compound 18]”: in the assay on CD8+ T-cells, the “Wells positive [%]” value is listed as ““+” (<20% = +)”. Further, the “Peptide exchange” value with HLA-A*02:01 was ““+++” (≥50 = +++)”. For “7 (YLTRHLAVL; listed as Homo sapiens) [compound 7]” the same measures were ““+” (<20% = +)” and ““++” (≥20% = ++)”. Take “31 (LLYGKYVSV; listed as Homo sapiens) [compound 31]”: the “Wells positive [%]” value in the assay on CD8+ T-cells is ““++” (20%-49% = ++)”. Moreover, the “Peptide exchange” value with HLA-A*02:01 is ““+++” (≥50 = +++)”. The like results for “150 (RLADLEALKV; listed as Homo sapiens) [compound 150]” were, in that order, ““++″ (20%-49% = ++)” and ““+++” (≥50 = +++)”. For “9 (ILDDHLSRV; listed as Homo sapiens) [compound 9]” the same measures were ““+” (<20% = +)” and ““++” (≥20% = ++)”. The like results for “10 (RMYNKIFAI; listed as Homo sapiens) [compound 10]” were, in that order, ““++++” (> = 70% = ++++)” and ““+++” (≥50 = +++)”.

In the case of “2 (ALLPRYFFL; listed as Homo sapiens) [compound 2]”, in the assay with CD8+ T-cells, the “Wells positive [%]” value was ““++++” (> = 70% = ++++)”. Further, in the assay with HLA-A*02:01, the “Peptide exchange” value was ““++” (≥20% = ++)”.

Take “38 (SLAPTPVSA; listed as Homo sapiens) [compound 38]”: the “Wells positive [%]” value in the assay on CD8+ T-cells is ““+” (<20% = +)”. The “Peptide exchange” value with HLA-A*02:01 was ““++” (≥20% = ++)”. The like results for “22 (GLIDEVMVL; listed as Homo sapiens) [compound 22]” were, in that order, ““++” (20%-49% = ++)” and ““+++” (≥50 = +++)”. The like results for “132 (ALLNAILHSA; listed as Homo sapiens) [compound 132]” were, in that order, ““+” (<20% = +)” and ““+++” (≥50 = +++)”. For “5 (WLFDDGGLTL; listed as Homo sapiens) [compound 5]”, the “Wells positive [%]” value in the assay on CD8+ T-cells is recorded as ““++” (20%-49% = ++)”. In addition, in the assay with HLA-A*02:01, the “Peptide exchange” value is on record as ““++++” (≥75% = ++++)”. The like results for “17 (ALAAARVEL; listed as Homo sapiens) [compound 17]” were, in that order, ““++” (20%-49% = ++)” and ““+++” (≥50 = +++)”. For “19 (RLYTKLLNEA; listed as Homo sapiens) [compound 19]”, the “Wells positive [%]” value in the assay with CD8+ T-cells is listed as ““+++” (50%-69% = +++)”. Besides, in the assay with HLA-A*02:01, the “Peptide exchange” value is ““+++” (≥50 = +++)”. For “59 (LLTDNVVKL; listed as Homo sapiens) [compound 59]”, the “Wells positive [%]” value with CD8+ T-cells is listed as ““+” (<20% = +)”. In the assay with HLA-A*02:01, the “Peptide exchange” value is ““+++” (≥50 = +++)”.
